The test system of one series is human erythrocytes. Kind of series: Hemolysis assay. The class given is cell-based. The method, boiled down: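 Human erythrocytes from fresh heparinised blood, 20 vol % in PBS pH 7.4, mixed 1:1 with 2-fold serial peptoid dilutions; PBS as 0% and 0.2 vol % Triton X-100 as 100% hemolysis. Incubated 1 h at 37 °C, diluted, centrifuged 1200 g for 15 min; supernatant A350 read.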

Series [1] has as its system Staphylococcus aureus NRS100 (COL). Format: cell-based. The note with it: for MIC S. aureus NRS100 (COL): Table 7A, MRSA. On the procedure:
(§1) Antibacterial assays. MICs were determined according to CLSI M7-A6 protocols in a 96-well microtiter plate. In test wells, 50 μL bacterial inoculum (5×10^5 CFU/ml) in Mueller-Hinton broth (MHB) was added to 50 μL peptoid solution in MHB (prepared by 1:2 serial dilutions). Positive controls contained 50 μL inoculum and 50 μL MHB without peptoid. […] MIC values reported were reproducible between three independent experimental replicates, each consisting of two parallel trials. Broad-spectrum antimicrobial susceptibility testing was performed against BSL2 pathogens by Nova Biologicals, Inc. (Conroe, Tex.).
(§2) Broad-spectrum antibacterial assays. MICs of compounds were determined by microdilution procedure in Mueller-Hinton broth (MHB) in accordance with CLSI M7-A6 protocols in a manner similar to that described for the screen antibacterial assays. Inoculated microtiter plates were incubated at 35° C. for 24 hours prior to the result being recorded. Four ATCC strains that were used as standards are recommended by CLSI: Pseudomonas aeruginosa ATCC 27853, Escherichia coli ATCC 25922, Staphylococcus aureus ATCC 29213 and Enterococcus faecalis ATCC 29212. Other strains from the ATCC collection include Proteus vulgaris ATCC 49132, Proteus mirabilis ATCC 35659, Klebsiella pneumoniae ATCC 33495, Enterobacter aerogenes ATCC 35029 and Serratia marcescens ATCC 13880. S. aureus NRS100 (COL) is a well characterized methicillian-resistant S. aureus (MRSA) strain. The strains S. aureus VAN1 and S. aureus VAN2, vancomycin-resistant MRSA strains that were isolated in Michigan and Pennsylvania, were the first vancomycin-resistant strains clinically isolated. S. aureus NRS119 and S. aureus NRS120 are linezolid-resistant isolates from the Network on Antimicrobial Resistance in S. aureus (NARSA) collection. E. faecalis 99 and E. faecium 106 are vancomycin-resistant enterococcal strains.

Series [2] deals with Enterobacter aerogenes ATCC 35029. The class given is cell-based. Particulars: for MIC E. aerogenes ATCC 35029: Table 7A. The method, then:
as §1, §2

Series [3] has as its system Enterococcus faecalis ATCC 29212. The class given is cell-based. The note with it: for MIC E. faecalis ATCC 29212: Table 7A. The method, then:
as §1, §2

For series [4], the system named is Staphylococcus aureus ATCC 29213. The class given is cell-based. Particulars: for MIC S. aureus ATCC 29213: Table 7A. The method, then:
as §1, §2

The test system of the next series is E. coli (ATCC 35218). The class given is cell-based. The method, boiled down:
(§3)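 MICs by broth microdilution per CLSI M7-A6 in cation-adjusted Mueller-Hinton broth, using 2:1 serial dilutions of peptoid and a bacterial inoculum of 1×10^6 CFU/mL. Values reproducible over three experiments, each with two parallel trials.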

The subject of the next series is B. subtilis (ATCC 6633). The class given is cell-based. An outline of the steps: as §3
A short description of series [5]: MTS assay, metabolic inhibition. Format: cell-based, mouse. The method, boiled down: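 NIH/3T3 cells seeded at 5,000 per well, grown a day, then exposed to serially diluted peptoids in HBSS together with MTS reagent. Absorbance at 490 nm read after 3 hours at 37° C.; mean of six replicates.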

≈ marks a conversion by molar mass, not a printed value. Where “and” joins values, the source holds several entries; their conditions need not be identical. Identical values can stand only once. Like-named read-outs stand apart in the source and are kept apart here. Numbered stars: 1 amine (or outer) side, 2 acyl side, 3 side chain; on linkers, the order of the positions; unused ones are H or OH. Square brackets hold non-standard residues; d marks the D form. Peptide text beside a SMILES is read from it. X1 = CC(C)[C@H](C)N(CC(=O)[*:2])[*:1]; Nspe = C[C@H](NCC(=O)O)c1ccccc1; Nphe = O=C(O)CNCc1ccccc1; Nlys = NCCCCNCC(=O)O Bounds are passed on as bounds.

A word on the IC50: it is the concentration that gives 50% inhibition.

Consider `C[C@@H](c1ccccc1)N(CC(N)=O)C(=O)CN(C(=O)CN(CCCCN)C(=O)CN(C(=O)CN(C(=O)CN(CCCCN)C(=O)[C@@H]1CCCN1C(=O)CN(C(=O)CN(CCCCN)C(=O)CN(C(=O)CN(C(=O)CNCCCCN)[C@@H](C)c1ccccc1)[C@@H](C)c1ccccc1)[C@@H](C)c1ccccc1)[C@@H](C)c1ccccc1)[C@@H](C)c1ccccc1)[C@@H](C)c1ccccc1` [1-Pro6, H-Nlys-Nspe-Nspe-Nlys-Nspe-L-Pro-(Nlys-Nspe-Nspe)2-NH2] (H-[Nlys][Nspe][Nspe][Nlys][Nspe]P[Nlys][Nspe][Nspe][Nlys][Nspe][Nspe]-NH2), for which, in the series with human erythrocytes, the HD10 worked out at 83 µM and the HD50 was above 200 µM. Also, in the series with human erythrocytes (red cells of human, 1 h), the “HD10 (10% hemolytic dose)” value amounted to 63 µM and the “HD50 (50% hemolytic dose)” value was above 110 µM. In addition, the “MIC Staphylococcus aureus NRS100 (COL)” value in series [1] (NRS100 (COL)) turned out to be 4.6 µM (≈ 8.07 µg/mL). For the same compound, the “MIC Enterobacter aerogenes ATCC 35029” value in series [2] (ATCC 35029) was 72.9 µM (≈ 128 µg/mL). Also, the “MIC Enterococcus faecalis ATCC 29212” value in series [3] (ATCC 29212) was 4.6 µM (≈ 8.07 µg/mL). Moreover, the “MIC Staphylococcus aureus ATCC 29213” value in series [4] (ATCC 29213) was found to be 4.6 µM (≈ 8.07 µg/mL). In addition, the “E. coli MIC” value in the series with E. coli (ATCC 35218) (ATCC 35218) was 12.5 µM. Moreover, the “B. subtilis MIC” value in the series on B. subtilis (ATCC 6633) (ATCC 6633) was 1.6 µM. Moreover, the IC50 in series [5] was determined as 18 µM.

Turning to `NCCCCNCC(=O)N(CC(=O)N(CC(=O)N(CCCCN)CC(=O)N(CC(=O)N(CC(=O)N(CCCCN)CC(=O)N(CC(=O)N(CC(=O)N(CCCCN)CC(=O)N(CC(=O)N(CC(N)=O)Cc1ccccc1)Cc1ccccc1)Cc1ccccc1)Cc1ccccc1)Cc1ccccc1)Cc1ccccc1)Cc1ccccc1)Cc1ccccc1` [1achiral, H-(Nlys-Npm-Npm)4-NH2] (H-[Nlys][Nphe][Nphe][Nlys][Nphe][Nphe][Nlys][Nphe][Nphe][Nlys][Nphe][Nphe]-NH2), in series [1] (NRS100 (COL)), the “MIC Staphylococcus aureus NRS100 (COL)” value was 4.7 µM (≈ 8.02 µg/mL). Also, the “MIC S. aureus NRS100 (COL)” value in series [1] was found to be 8 µg/mL (≈ 4.69 µM). The “MIC Enterobacter aerogenes ATCC 35029” value in series [2] (ATCC 35029) was 75.0 µM (≈ 128 µg/mL). Moreover, the “MIC E. aerogenes ATCC 35029” value in series [2] stood at 128 µg/mL (≈ 75 µM). The “MIC Enterococcus faecalis ATCC 29212” value in series [3] (ATCC 29212) amounted to 9.4 µM (≈ 16 µg/mL). The “MIC E. faecalis ATCC 29212” value in series [3] was found to be 16 µg/mL (≈ 9.37 µM). The “MIC Staphylococcus aureus ATCC 29213” value in series [4] (ATCC 29213) was 4.7 µM (≈ 8.02 µg/mL). Moreover, the “MIC S. aureus ATCC 29213” value in series [4] was 8 µg/mL (≈ 4.69 µM). In addition, the “B. subtilis MIC” value in the series on B. subtilis (ATCC 6633) (ATCC 6633) was determined as 0.78 µM. The compound also had an IC50 in series [5] of 16 µM.

For the compound `C[C@@H](c1ccccc1)N(CC(N)=O)C(=O)CN(C(=O)CN(CCCCN)C(=O)CN(C(=O)CN(C(=O)CN(CCCCN)C(=O)CN(C(=O)CN(C(=O)CN(CCCCN)C(=O)CN(C(=O)CN(C(=O)CNCCCCN)[C@@H](C)c1ccccc1)[C@@H](C)c1ccccc1)[C@@H](C)c1ccccc1)[C@@H](C)c1ccccc1)[C@@H](C)c1ccccc1)[C@@H](C)c1ccccc1)[C@@H](C)c1ccccc1` [compound 1, H-(NLys-Nspe-Nspe)4-NH2] (H-[Nlys][Nspe][Nspe][Nlys][Nspe][Nspe][Nlys][Nspe][Nspe][Nlys][Nspe][Nspe]-NH2), in the series with human erythrocytes (Table 1, human erythrocytes), the “HD10 (10% hemolytic dose)” value was determined as 21 µM. Further, the “HD50 (50% hemolytic dose)” value in the series with human erythrocytes (Table 1, human erythrocytes) came out at 100 µM. The figures for the HD10 in the series on human erythrocytes (Table 2), in the series on human erythrocytes (Table 3) and in the series with human erythrocytes (Table 6) were 18 µM, 21 µM and 21 µM, respectively. Also, the HD50 in the series with human erythrocytes (Table 2) came to 72 µM; with human erythrocytes (Table 3), 100 µM; in the series with human erythrocytes (Table 6) it was 100 µM. The “MIC Staphylococcus aureus NRS100 (COL)” value in series [1] (Table 4, Gram +) is 2.2 µM. Also, the “MIC Enterobacter aerogenes ATCC 35029” value in series [2] (Table 4, Gram −) was 8.8 µM (≈ 16 µg/mL). In addition, the “MIC Enterococcus faecalis ATCC 29212” value in series [3] (Table 4, Gram +) is 2.2 µM. In addition, the “MIC Staphylococcus aureus ATCC 29213” value in series [4] (Table 4, Gram +) was found to be 2.2 µM. Also, the “E. coli MIC” value with E. coli (ATCC 35218) (Table 3, ATCC 35218, cation-adjusted MHB) was 6.3 µM; with E. coli (ATCC 35218) (Table 6, ATCC 35218), 6.25 µM and 6.3 µM. The “B. subtilis MIC” value with B. subtilis (ATCC 6633) (Table 3, ATCC 6633, cation-adjusted MHB) was 1.6 µM; with B. subtilis (ATCC 6633) (Table 6, ATCC 6633), 1.6 µM. The compound also showed an IC50 in series [5] (Table 6, NIH 3T3 mouse fibroblast cells) of 5.1 µM.

In the series on human erythrocytes, `CC(C)[C@H](C)N(CC(=O)N(CC(=O)N(CCCCN)CC(=O)N(CC(=O)N(CC(=O)N(CCCCN)CC(=O)N(CC(=O)N(CC(=O)N(CCCCN)CC(=O)N(CC(=O)N(CC(N)=O)[C@@H](C)c1ccccc1)[C@@H](C)C(C)C)[C@@H](C)c1ccccc1)[C@@H](C)C(C)C)[C@@H](C)c1ccccc1)[C@@H](C)C(C)C)[C@@H](C)c1ccccc1)C(=O)CNCCCCN` [1-Nsdp2,5,8,11, H-(Nlys-Nsdp-Nspe)4-NH2] (H-[Nlys][X1][Nspe][Nlys][X1][Nspe][Nlys][X1][Nspe][Nlys][X1][Nspe]-NH2) registered an HD10 of 111 µM and an HD50 above 200 µM. Besides, the “MIC Staphylococcus aureus NRS100 (COL)” value in series [1] (NRS100 (COL)) is 4.8 µM (≈ 8.08 µg/mL). Further, the “MIC S. aureus NRS100 (COL)” value in series [1] came to 8 µg/mL (≈ 4.75 µM). In addition, the “MIC Enterobacter aerogenes ATCC 35029” value in series [2] (ATCC 35029) was determined as 19.0 µM (≈ 32 µg/mL). In addition, in series [2], the “MIC E. aerogenes ATCC 35029” value was found to be 32 µg/mL (≈ 19 µM). In series [3] (ATCC 29212), the “MIC Enterococcus faecalis ATCC 29212” value turned out to be 4.8 µM (≈ 8.08 µg/mL). In addition, in series [3], the “MIC E. faecalis ATCC 29212” value is 8 µg/mL (≈ 4.75 µM). Further, the “MIC Staphylococcus aureus ATCC 29213” value in series [4] (ATCC 29213) was found to be 4.8 µM (≈ 8.08 µg/mL). Moreover, the “MIC S. aureus ATCC 29213” value in series [4] came to 8 µg/mL (≈ 4.75 µM). In addition, the “E. coli MIC” value in the series with E. coli (ATCC 35218) (Table 6, ATCC 35218) was 12.5 µM. Moreover, in the series on B. subtilis (ATCC 6633) (ATCC 6633), the “B. subtilis MIC” value was determined as 0.78 µM. Besides, the IC50 in series [5] worked out at 20 µM.
